Test results taken from PMC8955485, “Journey on VX-809-Based Hybrid Derivatives towards Drug-like F508del-CFTR Correctors: From Molecular Modeling to Chemical Synthesis and Biological Assays” (Pharmaceuticals, 2022).
“And” between values parts separate entries of the source, which are not always exact repeats. Equal entries are not always repeated. Where two headings read alike, the source gives them in different places.

Legend:
F508del-CFTR [1] = biological target: T1, F508del-CFTR (Homo sapiens, UniProt P13569, DEL508-508); assay: HS-YFP functional assay for F508del-CFTR correctors in CFBE41o- cells; type: cell-based; set-up: expressed in transfected cells; details: for EC50: CFBE41o- cells stably expressing F508del-CFTR and HS-YFP, 24 h incubation, stimulation with forskolin 20 µM plus VX-770 1 µM; for F508del-CFTR corrector activity (in words): CFBE41o- cells, HS-YFP assay, 24 h
Protocol: The ability of these compounds to correct the basic defects related to F508del mutant was evaluated on immortalized CFBE41o-bronchial epithelial cells stably expressing F508del-CFTR and the halide sensitive yellow fluorescent protein (HS-YFP).
The measurements of the rate of HS-YFP quenching caused by iodide influx allowed us to determine the activity of F508del-CFTR, after incubation with the compounds, as cited. Activity was then compared to that of cells treated with the corrector VX-809 (1 µM) or with vehicle alone (DMSO).
Within the novel third series of hybrids herein proposed, based on their potency and efficacy in terms of CFTR rescue, we selected six compounds and determined the dose–response relationships (Figure 6). To this aim, F508del-CFTR expressing CFBE41o-cells were treated for 24 h with our hybrids 9b, 9f, 9g, 9h, 9j, and 9y and then mutant CFTR activity was measured by using the YFP functional assay (see Materials and Methods section for details).
Immortalized bronchial epithelial CFBE41o-cells with stable co-expression of the halide-sensitive yellow fluorescent protein (HS-YFP) and of F508del-CFTR were cultured using MEM medium supplemented with 10% fetal calf serum, 100 U/mL penicillin, 2 mM L-glutamine, and […] streptomycin.
CFBE41o-cells co-expressing mutants CFTR and HS-YFP were plated (50,000 cells/well) on clear-bottom 96-well black microplates (Corning Life Sciences, Acton, MA) and grown at 37 °C in 5% CO2 for 24 h. For the corrector assay, CFBE41o-cells were treated for further 24 h with compounds as indicated. The following day, prior to the assay, the culture medium was removed and cells were stimulated for 30 min at 37 °C with 60 µL PBS (containing 137 mM NaCl, 2.7 mM KCl, 8.1 mM Na2HPO4, 1.5 mM KH2PO4, 1mM CaCl2, and 0.5 mM MgCl2) plus forskolin (20 µM) and VX-770 (1 µM).
Microplates containing CFBE41o-cells were then transferred to a plate reader (FluoStar Galaxy; BMG Labtech, Offenburg, Germany) equipped with excitation (HQ500/20X: 500 ± 10 nm) and emission (HQ535/30M: 535 ± 15 nm) filters for YFP (Chroma Technology, Brattleboro, VT, USA). During the assay fluorescence was measured continuously for 14 s with 2 s before and 12 s after injection of an iodide containing solution (165 µL of a modified PBS containing I^- instead of Cl^-; final I^- concentration in the well: 100 mM).
Fluorescence data were normalized for the initial value and fluorescence quenching rate following I^- influx, were determined by fitting the final 10 s of data for each well with an exponential function to extrapolate initial slope (dF/dt).
To evaluate the dose–response relationships, activity slopes obtained for each compound at the different concentrations were fitted with the Hill equation using the Igor software (WaveMetrics) to extrapolate EC50, maximal effect, and Hill coefficient.

F508del-CFTR [2] = biological target: T1, F508del-CFTR; set-up: expressed in transfected cells; details: first series of hybrids, cited from earlier work; for pEC50: from EC50 of ref 27

T1 sequence (P13569 with tags, fused parts or gaps DEL508-508): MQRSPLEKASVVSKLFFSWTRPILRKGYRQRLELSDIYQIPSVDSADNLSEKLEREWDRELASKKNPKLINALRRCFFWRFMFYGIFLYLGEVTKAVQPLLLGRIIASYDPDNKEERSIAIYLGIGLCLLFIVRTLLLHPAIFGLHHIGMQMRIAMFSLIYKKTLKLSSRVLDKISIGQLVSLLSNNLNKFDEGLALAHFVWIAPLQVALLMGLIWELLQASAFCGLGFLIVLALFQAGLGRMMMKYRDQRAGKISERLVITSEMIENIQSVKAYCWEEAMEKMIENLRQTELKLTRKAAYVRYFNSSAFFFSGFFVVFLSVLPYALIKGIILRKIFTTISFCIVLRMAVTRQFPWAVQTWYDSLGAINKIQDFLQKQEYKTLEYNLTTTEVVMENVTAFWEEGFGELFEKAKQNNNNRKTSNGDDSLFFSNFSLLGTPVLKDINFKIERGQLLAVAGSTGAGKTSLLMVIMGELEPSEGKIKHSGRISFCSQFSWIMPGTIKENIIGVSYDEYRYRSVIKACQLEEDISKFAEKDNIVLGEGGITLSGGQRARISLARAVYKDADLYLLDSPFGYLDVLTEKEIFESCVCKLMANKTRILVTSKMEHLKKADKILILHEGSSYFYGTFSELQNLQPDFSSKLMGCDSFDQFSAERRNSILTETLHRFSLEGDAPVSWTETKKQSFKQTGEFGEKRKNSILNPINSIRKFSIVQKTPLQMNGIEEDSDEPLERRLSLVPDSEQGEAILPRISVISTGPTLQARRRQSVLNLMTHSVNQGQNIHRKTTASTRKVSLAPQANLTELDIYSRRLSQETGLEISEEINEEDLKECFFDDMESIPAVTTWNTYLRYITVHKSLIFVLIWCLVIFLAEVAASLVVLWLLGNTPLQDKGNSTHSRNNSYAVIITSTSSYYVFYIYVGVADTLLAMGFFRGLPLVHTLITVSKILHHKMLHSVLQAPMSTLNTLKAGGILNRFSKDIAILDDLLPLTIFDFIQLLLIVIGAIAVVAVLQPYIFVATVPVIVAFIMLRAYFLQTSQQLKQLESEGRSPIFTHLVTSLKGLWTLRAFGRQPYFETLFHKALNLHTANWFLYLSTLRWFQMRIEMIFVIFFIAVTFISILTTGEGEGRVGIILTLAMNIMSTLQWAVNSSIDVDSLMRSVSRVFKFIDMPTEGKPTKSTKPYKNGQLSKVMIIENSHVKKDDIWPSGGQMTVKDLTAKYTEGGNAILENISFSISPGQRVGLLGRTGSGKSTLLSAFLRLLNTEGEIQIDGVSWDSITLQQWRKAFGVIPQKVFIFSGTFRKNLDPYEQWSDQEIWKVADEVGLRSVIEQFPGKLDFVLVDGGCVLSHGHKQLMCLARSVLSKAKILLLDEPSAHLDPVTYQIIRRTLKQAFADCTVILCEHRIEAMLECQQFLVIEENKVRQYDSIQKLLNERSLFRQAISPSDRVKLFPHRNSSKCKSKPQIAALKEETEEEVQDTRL

| Compound | EC50 (F508del-CFTR [1]) [nM] | EC50 (F508del-CFTR [2]) | pEC50 (F508del-CFTR [2]) [M] | F508del-CFTR corrector activity (in words) (F508del-CFTR [1]) |
| --- | --- | --- | --- | --- |
| COc1cccc(-c2nc(NC(=O)C3(c4ccc5c(c4)OCO5)CC3)sc2C(=O)c2ccc(SC)cc2)c1 [Compound 9k] | 360 | – | – | – |
| O=C(Nc1nc(-c2ccc(O)cc2)cs1)C1(c2ccc3c(c2)OCO3)CC1 [Compound 5a] | – | 1800 nM | 5.74 | – |
| Cc1sc(NC(=O)C2(c3ccc4c(c3)OCO4)CC2)nc1-c1ccc(O)cc1 [Compound 5d] | – | 3900 nM | 5.41 | – |
| Cc1sc(NC(=O)C2(c3ccc4c(c3)OC(F)(F)O4)CC2)nc1-c1ccc(Br)cc1 [Compound 6a] | – | 3800 nM | 5.42 | – |
| O=C(Nc1nc(-c2ccc(I)cc2)cs1)C1(c2ccc3c(c2)OCO3)CC1 [Compound 4d] | – | 1200 nM | 5.92 | – |
| Cc1sc(NC(=O)C2(c3ccc4c(c3)OCO4)CC2)nc1-c1ccc(Cl)cc1 [Compound 3a] | – | 2900 nM | 5.54 | – |
| O=C(O)c1ccc(-c2csc(NC(=O)C3(c4ccc5c(c4)OCO5)CC3)n2)cc1 [Compound 5e] | – | > 5000 nM and 5000 nM | 5.30 | – |
| O=C(c1ccc(-c2ccccc2)cc1)c1sc(NC(=O)C2(c3ccc4c(c3)OCO4)CC2)nc1-c1cccnc1 [Compound 9t, N-(5-([1,1′-biphenyl]-4-carbonyl)-4-(pyridin-3-yl)thiazol-2-yl)-1-(benzo[d][1,3]dioxol-5-yl)cyclopropane-1-carboxamide] | 130 | – | – | – |
| O=C(Nc1nc(-c2cccc(O)c2)cs1)C1(c2ccc3c(c2)OC(F)(F)O3)CC1 [Compound 6c] | – | 1300 nM | 5.89 | – |
| COc1cccc(C(=O)c2sc(NC(=O)C3(c4ccc5c(c4)OCO5)CC3)nc2-c2cccc(OC)c2)c1 [Compound 9o] | 210 | – | – | – |
| CSc1ccc(-c2nc(NC(=O)C3(c4ccc5c(c4)OCO5)CC3)sc2C(=O)c2ccc(-c3ccccc3)cc2)cc1 [Compound 9s, N-(5-([1,1′-biphenyl]-4-carbonyl)-4-(4-(methylthio)phenyl)thiazol-2-yl)-1-(benzo[d][1,3]dioxol-5-yl)cyclopropane-1-carboxamide] | 130 | – | – | – |
| CCOC(=O)c1sc(NC(=O)C2(c3ccc4c(c3)OCO4)CC2)nc1-c1ccc(Br)cc1 [Compound 2b] | – | 300 nM | 6.52 | – |
| COc1ccc(-c2nc(NC(=O)C3(c4ccc5c(c4)OCO5)CC3)sc2C(=O)c2ccc(-c3ccccc3)cc2)cc1 [Compound 9f] | 140 | – | – | – |
| CCOC(=O)c1sc(NC(=O)C2(c3ccc4c(c3)OCO4)CC2)nc1-c1cccc(Cl)c1 [Compound 2c] | – | 550 nM | 6.26 | – |
| COc1cccc(C(=O)c2sc(NC(=O)C3(c4ccc5c(c4)OCO5)CC3)nc2-c2ccc(Cl)cc2)c1 [Compound 9x] | 370 | – | – | – |
| O=C(c1ccccc1)c1sc(NC(=O)C2(c3ccc(Cl)cc3)CC2)nc1-c1ccccc1 [Compound 18] | – | – | – | poorly effective |
| COc1cccc(-c2nc(NC(=O)C3(c4ccc5c(c4)OCO5)CC3)sc2C(=O)c2ccc(N3CCCC3)cc2)c1 [Compound 9n] | 600 | – | – | – |
| Cc1sc(NC(=O)C2(c3ccc4c(c3)OCO4)CC2)nc1-c1cccc(O)c1 [Compound 5c] | – | 1200 nM | 5.92 | – |
| Cc1sc(NC(=O)C2(c3ccc4c(c3)OCO4)CC2)nc1-c1ccccc1 [Compound 3d] | – | 1600 nM | 5.80 | – |
| O=C(Nc1nc(-c2cccc(O)c2)cs1)C1(c2ccc3c(c2)OCO3)CC1 [Compound 5b] | – | 2300 nM | 5.64 | – |
| CCOC(=O)c1ccc(C(=O)c2sc(NC(=O)C3(c4ccc5c(c4)OCO5)CC3)nc2-c2ccc(OC)cc2)cc1 [Compound 9e] | 560 | – | – | – |
| O=C(Cc1ccc2c(c1)OCO2)Nc1nc(-c2ccccc2)c(C(=O)c2ccccc2)s1 [Compound 12b] | – | – | – | inactive |
| COc1ccc(-c2nc(NC(=O)C3(c4ccc5c(c4)OCO5)CC3)sc2C(=O)c2ccc(SC)cc2)cc1 [Compound 9d] | 100 | – | – | – |

| Compound | EC50 (F508del-CFTR [1]) [nM] | EC50 (F508del-CFTR [2]) | pEC50 (F508del-CFTR [2]) [M] | F508del-CFTR corrector activity (in words) (F508del-CFTR [1]) |
| --- | --- | --- | --- | --- |
| O=C(Nc1nc(-c2cccc(Cl)c2)cs1)C1(c2ccc3c(c2)OCO3)CC1 [Compound 4c] | – | 8200 nM | 5.09 | – |
| CC(C)(Oc1ccc2c(c1)OCO2)C(=O)Nc1nc(-c2ccccc2)c(C(=O)c2ccccc2)s1 [Compound 17] | – | – | – | lowered efficacy |
| Cc1sc(NC(=O)C2(c3ccc4c(c3)OCO4)CC2)nc1-c1cccc(Cl)c1 [Compound 3c] | – | 2300 nM | 5.64 | – |
| O=C(c1ccccc1)c1sc(NC(=O)C2(c3ccc4c(c3)OCO4)CC2)nc1-c1ccccc1 [Compound 2a] | – | 87 nM | 7.06 | – |
| CC(=O)Nc1ccc(-c2csc(NC(=O)C3(c4ccc5c(c4)OCO5)CC3)n2)cc1 [Compound 5g] | – | > 5000 nM and 5000 nM | 5.30 | – |
| Cc1sc(NC(=O)C2(c3ccc4c(c3)OC(F)(F)O4)CC2)nc1-c1cccc(Cl)c1 [Compound 6b] | – | 5400 nM | 5.27 | – |
| O=C(Nc1nc(-c2ccc(O)cc2)cs1)C1(c2ccc3c(c2)OC(F)(F)O3)CC1 [Compound 6d] | – | 1700 nM | 5.77 | – |
| COC(=O)c1ccc(-c2nc(NC(=O)C3(c4ccc5c(c4)OCO5)CC3)sc2C(=O)c2ccc(-c3ccccc3)cc2)cc1 [Compound 9r, Methyl 4-(5-([1,1′-biphenyl]-4-carbonyl)-2-(1-(benzo[d][1,3]dioxol-5-yl)cyclopropane-1-carboxamido)thiazol-4-yl)benzoate] | 120 | – | – | – |
| COc1cccc(C(=O)c2sc(NC(=O)C3(c4ccc5c(c4)OCO5)CC3)nc2-c2ccc(SC)cc2)c1 [Compound 9v] | 280 | – | – | – |
| COc1ccc(C(=O)c2sc(NC(=O)C3(c4ccc5c(c4)OCO5)CC3)nc2-c2ccccc2OC)cc1 [Compound 9p, 1-(benzo[d][1,3]dioxol-5-yl)-N-(5-(4-methoxybenzoyl)-4-(2-methoxyphenyl)thiazol-2-yl)cyclopropanecarboxamide] | 220 | – | – | – |
| O=C(Nc1nc(-c2ccc(Cl)cc2)cs1)C1(c2ccc3c(c2)OCO3)CC1 [Compound 4a] | – | 2900 nM | 5.54 | – |
| COc1ccccc1-c1nc(NC(=O)C2(c3ccc4c(c3)OCO4)CC2)sc1C(=O)c1ccc(OC(F)(F)F)cc1 [Compound 9q] | 150 | – | – | – |
| COc1ccc(-c2nc(NC(=O)C3(c4ccc5c(c4)OCO5)CC3)sc2C(=O)c2ccccc2)cc1 [Compound 9a, 1-(benzo[d][1, 3]dioxol-5-yl)-N-(5-benzoyl-4-(4-methoxyphenyl)thiazol-2-yl)cyclopropane-1-carboxamide] | 350 | – | – | – |
| CSc1ccc(C(=O)c2sc(NC(=O)C3(c4ccc5c(c4)OCO5)CC3)nc2-c2ccc(SC)cc2)cc1 [Compound 9z] | 300 | – | – | – |
| COc1ccc(-c2nc(NC(=O)C3(c4ccc5c(c4)OCO5)CC3)sc2C(=O)c2cccc(OC)c2)cc1 [Compound 9h] | 120 | – | – | – |
| COC(=O)c1ccc(-c2nc(NC(=O)C3(c4ccc5c(c4)OCO5)CC3)sc2C(=O)c2ccc(SC)cc2)cc1 [Compound 9y] | 76 | – | – | – |
| O=C(Nc1nc(-c2cccc(F)c2)cs1)C1(c2ccc3c(c2)OCO3)CC1 [Compound 4e] | – | 2100 nM | 5.68 | – |
| COc1ccc(-c2nc(NC(=O)C3(c4ccc5c(c4)OCO5)CC3)sc2C(=O)c2ccc(OC(F)(F)F)cc2)cc1 [Compound 9c] | 140 | – | – | – |
| O=C(Nc1nc(-c2ccc(Br)cc2)cs1)C1(c2ccc3c(c2)OCO3)CC1 [Compound 4b] | – | 4900 nM | 5.31 | – |
| Cc1sc(NC(=O)C2(c3ccc4c(c3)OCO4)CC2)nc1-c1ccc(C(=O)O)cc1 [Compound 5f] | – | 2900 nM | 5.54 | – |
| Cc1sc(NC(=O)C2(c3ccc4c(c3)OCO4)CC2)nc1-c1ccc(F)cc1 [Compound 3e] | – | 900 nM | 6.05 | – |
| CCOC(=O)c1sc(NC(=O)C2(c3ccc4c(c3)OCO4)CC2)nc1-c1ccc(Cl)cc1 [Compound 2d] | – | 900 nM | 6.05 | – |
| Cc1sc(NC(=O)C2(c3ccc4c(c3)OCO4)CC2)nc1-c1ccc(Br)cc1 [Compound 3b] | – | 1900 nM | 5.72 | – |
